Data set [1] in a line: Molar enthalpy of transition or fusion. The following applies: DSC.
For data set [2] the following is noted: DTA.
Data set [3] is described as follows: molar enthalpy of transition or fusion. To be noted: 640.05 K; Crystal 2; DSC.
Data set [4] in a line: Solid-liquid equilibrium temperature. The following applies: 10000 kPa; Crystal 2; DTA.

Numbers after ± are expanded uncertainties.

Turning to `O=S(=O)([O-])O.[NH4+]` [ammonium acid sulfate], the “Molar enthalpy of transition or fusion” value in data set [1] (Crystal) was determined as 3.51 ± 0.143 kcal/mol. Besides, the Normal melting temperature in data set [2] (Crystal) came to 144.20 ± 0.5 °C.
For `N.NS(=O)(=O)O` [ammonium sulfamate], in that order: 3.99 ± 0.143 kcal/mol and 132.90 ± 0.4 °C.
`N.N.O=S(=O)(O)O` [ammonium sulfate]: the “Molar enthalpy of transition or fusion” value in data set [1] (Crystal 3) was 0.681 ± 0.43 kcal/mol. Besides, in data set [3], the “molar enthalpy of transition or fusion” value was determined as 0.669 ± 0.191 kcal/mol. The Solid-liquid equilibrium temperature in data set [4] was 640.05 ± 0.8 K.
On to `O=S(=O)([O-])O.O=S(=O)([O-])[O-].[NH4+].[NH4+].[NH4+]` [triammonium hydrogen disulfate], for which the “Molar enthalpy of transition or fusion” value was found to be 7.65 ± 1.91 kcal/mol in data set [1] (Crystal 1) and 0.645 ± 0.0717 kcal/mol in data set [1] (Crystal 2). Moreover, in data set [2] (Crystal 1), the Normal melting temperature came to 229.00 ± 4 °C. Moreover, the Triple point temperature in data set [2] (Crystal 2) is reported as 412.85 ± 0.5 K.
